Measured values published in ChEMBL document CHEMBL1201862, “PubChem BioAssay data set” (2004).
Where “and” joins values, the source holds several entries; their conditions need not be identical. Identical values can stand only once.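 Five compound concentrations were applied to cells in 96-well plates for 48 hours; endpoints were derived by simple linear interpolation of the resulting dose-response curve. Here, GI50 denotes the concentration required for 50% inhibition of growth.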 Calls of active or inactive are those of the source. Cut-off read from the data, not from the text of the source: active = GI50 up to about 1.1 µM and inactive = higher.

Legend:
Test in all cases: inhibition of tumour cell growth, NCI panel, 48 h
[1] = test system: MDA-N
[2] = test system: RPMI-8226
[3] = test system: SF-539
[4] = test system: CCRF-CEM
[5] = test system: HT-29
[6] = test system: NCI/ADR-RES
[7] = test system: LOX IMVI
[8] = test system: MDA-MB-435
[9] = test system: NCI-H23
[10] = test system: Malme-3M
[11] = test system: UACC-62
[12] = test system: U-251
[13] = test system: HCC 2998
[14] = test system: TK-10
[15] = test system: SW-620
[16] = test system: NCI-H522
[17] = test system: 786-0
[18] = test system: BT-549
[19] = test system: SR

Structure (SMILES)	GI50 [1]	GI50 [2]	GI50 [3]	GI50 [4]	GI50 [5]	GI50 [6]	GI50 [7]	GI50 [8]	GI50 [9]	GI50 [10]	GI50 [11]	GI50 [12]	GI50 [13]	GI50 [14]	GI50 [15]	GI50 [16]	GI50 [17]	GI50 [18]	GI50 [19]
Brc1cccc(C2ON=C(c3ccccc3)N2C23CC4CC(CC(C4)C2)C3)c1 (stereo unspecified)	> 10 µM (inactive)	> 10 µM (inactive)	> 10 µM (inactive)	> 10 µM (inactive)	> 10 µM (inactive)	> 10 µM (inactive)	> 10 µM (inactive)	> 10 µM (inactive)	> 10 µM (inactive)	> 10 µM (inactive)	> 10 µM (inactive)	> 10 µM (inactive)	> 10 µM (inactive)	> 10 µM (inactive)	> 10 µM (inactive)	> 10 µM (inactive)	> 10 µM (inactive)	> 10 µM (inactive)	–
C1=N\CCNCCNCC/N=C\c2ccc(cc2)OCc2cccc(n2)COc2ccc/1cc2	> 100 µM (inactive)	53.6 µM (inactive)	> 100 µM (inactive)	27.6 µM (inactive)	> 100 µM (inactive)	95.1 µM (inactive)	–	75.2 µM (inactive)	86.3 µM (inactive)	> 100 µM (inactive)	> 100 µM (inactive)	> 100 µM (inactive)	–	–	95.5 µM (inactive)	–	> 100 µM (inactive)	> 100 µM (inactive)	50.5 µM (inactive)
CC(C)[C@H]1C(=O)O[B@-](F)(c2ccccc2)/[N+]1=C\N(C)C	> 100 µM (inactive)	> 100 µM (inactive)	–	> 100 µM (inactive)	> 100 µM (inactive)	> 100 µM (inactive)	> 100 µM (inactive)	> 100 µM (inactive)	> 100 µM (inactive)	> 100 µM (inactive)	> 100 µM (inactive)	> 100 µM (inactive)	> 100 µM (inactive)	> 100 µM (inactive)	> 100 µM (inactive)	–	> 100 µM (inactive)	> 100 µM (inactive)	> 100 µM (inactive)
Cn1c(=S)c2nc(SCCN3CCCC3)[nH]c2n(C)c1=O	> 100 µM (inactive)	> 100 µM (inactive)	> 100 µM (inactive)	> 100 µM (inactive)	> 100 µM (inactive)	> 100 µM (inactive)	> 100 µM (inactive)	> 100 µM (inactive)	> 100 µM (inactive)	> 100 µM (inactive)	> 100 µM (inactive)	> 100 µM (inactive)	–	> 100 µM (inactive)	> 100 µM (inactive)	> 100 µM (inactive)	> 100 µM (inactive)	> 100 µM (inactive)	> 100 µM (inactive)
O=c1[nH]nc(Cc2ccc([N+](=O)[O-])cc2)n1CCO	> 100 µM (inactive)	> 100 µM (inactive)	> 100 µM (inactive)	–	> 100 µM (inactive)	> 100 µM (inactive)	> 100 µM (inactive)	> 100 µM (inactive)	> 100 µM (inactive)	> 100 µM (inactive)	> 100 µM (inactive)	> 100 µM (inactive)	> 100 µM (inactive)	> 100 µM (inactive)	> 100 µM (inactive)	> 100 µM (inactive)	> 100 µM (inactive)	> 100 µM (inactive)	–
O=C=NCCCCCCN1C(=O)N2C(c3ccccc3)N(CCCCCCN=C=O)C(=O)N2C1c1ccccc1 (stereo unspecified)	> 100 µM (inactive)	55 µM (inactive)	> 100 µM (inactive)	79.3 µM (inactive)	> 100 µM (inactive)	> 100 µM (inactive)	> 100 µM (inactive)	> 100 µM (inactive)	> 100 µM (inactive)	> 100 µM (inactive)	–	> 100 µM (inactive)	> 100 µM (inactive)	> 100 µM (inactive)	> 100 µM (inactive)	–	> 100 µM (inactive)	> 100 µM (inactive)	65.2 µM (inactive)
O=C1N/C(=N/N=C\C(O)C(O)C(O)CO)N/C1=C/c1ccc(Cl)cc1 (stereo unspecified)	46.2 µM (inactive) and 38.5 µM (inactive)	33.2 µM (inactive) and 34.4 µM (inactive)	41.5 µM (inactive)	25.8 µM (inactive) and 21.5 µM (inactive)	44.5 µM (inactive) and 31.8 µM (inactive)	55.5 µM (inactive) and 44.5 µM (inactive)	40.6 µM (inactive) and 35.5 µM (inactive)	59.4 µM (inactive) and 43.8 µM (inactive)	30.3 µM (inactive) and 42.8 µM (inactive)	20.9 µM (inactive) and 17 µM (inactive)	–	33 µM (inactive) and 34.1 µM (inactive)	> 10 µM (inactive)	> 100 µM (inactive) and 89.7 µM (inactive)	60.5 µM (inactive) and 52.1 µM (inactive)	22.5 µM (inactive) and 20.4 µM (inactive)	53.1 µM (inactive)	30.7 µM (inactive) and 23.9 µM (inactive)	–
COc1cc2c(cc1O)-c1c(OC)c(O)cc3c1C(C2)N(C)CC3 (stereo unspecified)	> 100 µM (inactive)	> 100 µM (inactive)	> 100 µM (inactive)	> 100 µM (inactive)	> 100 µM (inactive)	> 100 µM (inactive)	> 100 µM (inactive)	> 100 µM (inactive)	> 100 µM (inactive)	–	> 100 µM (inactive)	> 100 µM (inactive)	–	> 100 µM (inactive)	> 100 µM (inactive)	> 100 µM (inactive)	> 100 µM (inactive)	> 100 µM (inactive)	> 100 µM (inactive)
COc1cc2cc(C(=O)N3CC(COS(C)(=O)=O)c4c3cc(N)c3ccccc43)[nH]c2c(OC)c1OC (stereo unspecified)	0.0195 µM (active)	0.0175 µM (active)	0.0177 µM (active)	0.0128 µM (active)	< 0.01 µM (active)	0.0123 µM (active)	0.0172 µM (active)	0.0152 µM (active)	< 0.0179 µM (active)	–	0.0146 µM (active)	0.0141 µM (active)	0.0148 µM (active)	< 0.01 µM (active)	0.0148 µM (active)	0.0146 µM (active)	< 0.01 µM (active)	0.0187 µM (active)	< 0.01 µM (active)
COC(=O)C1(C(=O)OC)CC2=C(S(=O)(=O)c3ccccc3)C[C@H](S(=O)(=O)c3ccccc3)[C@H]2C1	39.4 µM (inactive)	11.7 µM (inactive)	–	> 100 µM (inactive)	> 100 µM (inactive)	> 100 µM (inactive)	> 100 µM (inactive)	76.4 µM (inactive)	> 100 µM (inactive)	80.2 µM (inactive)	23.3 µM (inactive)	> 100 µM (inactive)	15.7 µM (inactive)	52.4 µM (inactive)	> 100 µM (inactive)	33 µM (inactive)	> 100 µM (inactive)	> 100 µM (inactive)	–
Cc1cc(N(C)C)c2ccccc2[n+]1CCCCCCCCCC[n+]1c(C)cc(N(C)C)c2ccccc21.[O-][Cl+3]([O-])([O-])[O-].[O-][Cl+3]([O-])([O-])[O-]	0.485 µM (active)	0.128 µM (active)	0.991 µM (active)	0.577 µM (active)	0.429 µM (active)	13.7 µM (inactive)	0.871 µM (active)	0.516 µM (active)	0.202 µM (active)	11 µM (inactive)	0.989 µM (active)	0.124 µM (active)	0.893 µM (active)	3.29 µM (inactive)	1.92 µM (inactive)	6.1 µM (inactive)	2.59 µM (inactive)	0.676 µM (active)	–
O=S(=O)(c1ccc(-c2nnc(-c3ccc(F)cc3)o2)cc1)c1ccc(-c2nnc(-c3ccc(F)cc3)o2)cc1	> 100 µM (inactive)	> 100 µM (inactive)	50.4 µM (inactive)	> 100 µM (inactive)	> 100 µM (inactive)	> 100 µM (inactive)	> 100 µM (inactive)	> 100 µM (inactive)	> 100 µM (inactive)	> 100 µM (inactive)	> 100 µM (inactive)	21.7 µM (inactive)	> 100 µM (inactive)	–	> 100 µM (inactive)	> 100 µM (inactive)	26.8 µM (inactive)	91 µM (inactive)	–
O=C(O)c1c(Br)c(Br)c(Br)c(Br)c1C1c2ccc(O)cc2Oc2cc(O)ccc21	> 100 µM (inactive)	> 100 µM (inactive)	> 100 µM (inactive)	–	> 100 µM (inactive)	> 100 µM (inactive)	> 100 µM (inactive)	> 100 µM (inactive)	–	> 100 µM (inactive)	> 100 µM (inactive)	> 100 µM (inactive)	68.1 µM (inactive)	> 100 µM (inactive)	> 100 µM (inactive)	> 100 µM (inactive)	> 100 µM (inactive)	> 100 µM (inactive)	–
CCc1n[nH]c(=O)n1/N=C/c1c(O)ccc2ccccc12	> 100 µM (inactive)	> 100 µM (inactive)	> 100 µM (inactive)	> 100 µM (inactive)	–	> 100 µM (inactive)	> 100 µM (inactive)	> 100 µM (inactive)	> 100 µM (inactive)	–	> 100 µM (inactive)	> 100 µM (inactive)	> 100 µM (inactive)	> 100 µM (inactive)	> 100 µM (inactive)	> 100 µM (inactive)	> 100 µM (inactive)	> 100 µM (inactive)	> 100 µM (inactive)
CC(=O)N1N(c2ccc([N+](=O)[O-])cc2)C(=O)C1(C)C	30.5 µM (inactive)	–	20.9 µM (inactive)	7.08 µM (inactive)	16.6 µM (inactive)	30.8 µM (inactive)	11.6 µM (inactive)	20.6 µM (inactive)	16.7 µM (inactive)	19.6 µM (inactive)	18.5 µM (inactive)	21.7 µM (inactive)	15.8 µM (inactive)	17.1 µM (inactive)	13.4 µM (inactive)	12.1 µM (inactive)	18.1 µM (inactive)	11.9 µM (inactive)	–
